Experimental data published in ChEMBL document CHEMBL3286253, “Design, synthesis, and structure-activity relationship studies of novel thioether pleuromutilin derivatives as potent antibacterial agents” (J Med Chem, 2014).
In brackets after ≈: the same amount, converted by molar mass.

Legend:
Type in all cases: functional
[1] = test system: Staphylococcus epidermidis; test: Antibacterial activity against methicillin-resistant Staphylococcus epidermidis after 16 hrs by agar dilution method
[2] = test system: Staphylococcus aureus; test: Antibacterial activity against methicillin-resistant Staphylococcus aureus after 16 hrs by agar dilution method
[3] = test system: Staphylococcus epidermidis; test: Antibacterial activity against methicillin-sensitive Staphylococcus epidermidis after 16 hrs by agar dilution method
[4] = test system: Staphylococcus aureus; test: Antibacterial activity against methicillin-sensitive Staphylococcus aureus after 16 hrs by agar dilution method
[5] = test system: Staphylococcus aureus; test: Antibacterial activity against Staphylococcus aureus […] after 16 hrs by agar dilution method
[6] = test system: Streptococcus pneumoniae; test: Antibacterial activity against penicillin-resistant Streptococcus pneumoniae after 16 hrs by agar dilution method

SMILES | MIC [1] | MIC [2] | MIC [3] | MIC [4] | MIC [5] | MIC [6]
C=C[C@]1(C)C[C@@H](OC(=O)CSc2cc(CO)ccn2)[C@]2(C)[C@H](C)CC[C@]3(CCC(=O)[C@H]32)[C@@H](C)[C@@H]1O | 0.125 µg/mL (≈ 0.249 µM) | 0.125 µg/mL (≈ 0.249 µM) | 0.125 µg/mL (≈ 0.249 µM) | 0.125 µg/mL (≈ 0.249 µM) | 0.125 µg/mL (≈ 0.249 µM) | 0.125 µg/mL (≈ 0.249 µM)
C=C[C@]1(C)C[C@@H](OC(=O)CSc2ncccc2CO)[C@]2(C)[C@H](C)CC[C@]3(CCC(=O)[C@H]32)[C@@H](C)[C@@H]1O | 0.125 µg/mL (≈ 0.249 µM) | 0.125 µg/mL (≈ 0.249 µM) | 0.063 µg/mL (≈ 0.126 µM) | 0.125 µg/mL (≈ 0.249 µM) | 0.125 µg/mL (≈ 0.249 µM) | 0.125 µg/mL (≈ 0.249 µM)
C=C[C@]1(C)C[C@@H](OC(=O)CSc2ncccc2C#N)[C@]2(C)[C@H](C)CC[C@]3(CCC(=O)[C@H]32)[C@@H](C)[C@@H]1O | 0.5 µg/mL (≈ 1.01 µM) | 0.5 µg/mL (≈ 1.01 µM) | 0.5 µg/mL (≈ 1.01 µM) | 0.5 µg/mL (≈ 1.01 µM) | 1 µg/mL (≈ 2.01 µM) | 0.5 µg/mL (≈ 1.01 µM)
C=C[C@]1(C)C[C@@H](OC(=O)CSc2cc(C#N)ccn2)[C@]2(C)[C@H](C)CC[C@]3(CCC(=O)[C@H]32)[C@@H](C)[C@@H]1O | 0.063 µg/mL (≈ 0.127 µM) | 0.063 µg/mL (≈ 0.127 µM) | 0.063 µg/mL (≈ 0.127 µM) | 0.063 µg/mL (≈ 0.127 µM) | 0.125 µg/mL (≈ 0.252 µM) | 0.063 µg/mL (≈ 0.127 µM)
C=C[C@]1(C)C[C@@H](OC(=O)CSc2ccc(N)cn2)[C@]2(C)[C@H](C)CC[C@]3(CCC(=O)[C@H]32)[C@@H](C)[C@@H]1O | 0.063 µg/mL (≈ 0.129 µM) | 0.063 µg/mL (≈ 0.129 µM) | 0.063 µg/mL (≈ 0.129 µM) | 0.063 µg/mL (≈ 0.129 µM) | 0.125 µg/mL (≈ 0.257 µM) | 0.063 µg/mL (≈ 0.129 µM)
C=C[C@]1(C)C[C@@H](OC(=O)CSc2ncccc2N)[C@]2(C)[C@H](C)CC[C@]3(CCC(=O)[C@H]32)[C@@H](C)[C@@H]1O | 0.125 µg/mL (≈ 0.257 µM) | 0.25 µg/mL (≈ 0.514 µM) | 0.125 µg/mL (≈ 0.257 µM) | 0.25 µg/mL (≈ 0.514 µM) | 0.5 µg/mL (≈ 1.03 µM) | 0.25 µg/mL (≈ 0.514 µM)
C=C[C@]1(C)C[C@@H](OC(=O)CSc2cc(/C=N/O)ccn2)[C@]2(C)[C@H](C)CC[C@]3(CCC(=O)[C@H]32)[C@@H](C)[C@@H]1O | 0.125 µg/mL (≈ 0.243 µM) | 0.125 µg/mL (≈ 0.243 µM) | 0.063 µg/mL (≈ 0.122 µM) | 0.063 µg/mL (≈ 0.122 µM) | 0.125 µg/mL (≈ 0.243 µM) | 0.25 µg/mL (≈ 0.486 µM)
C=C[C@]1(C)C[C@@H](OC(=O)CSc2cc(/C=N/N)ccn2)[C@]2(C)[C@H](C)CC[C@]3(CCC(=O)[C@H]32)[C@@H](C)[C@@H]1O | 0.5 µg/mL (≈ 0.973 µM) | 0.5 µg/mL (≈ 0.973 µM) | 0.5 µg/mL (≈ 0.973 µM) | 0.5 µg/mL (≈ 0.973 µM) | 0.5 µg/mL (≈ 0.973 µM) | 0.5 µg/mL (≈ 0.973 µM)
C=C[C@]1(C)C[C@@H](OC(=O)CSc2ccncc2N)[C@]2(C)[C@H](C)CC[C@]3(CCC(=O)[C@H]32)[C@@H](C)[C@@H]1O | 0.063 µg/mL (≈ 0.129 µM) | 0.063 µg/mL (≈ 0.129 µM) | 0.063 µg/mL (≈ 0.129 µM) | 0.063 µg/mL (≈ 0.129 µM) | 0.125 µg/mL (≈ 0.257 µM) | 0.125 µg/mL (≈ 0.257 µM)
C=C[C@]1(C)C[C@@H](OC(=O)CSc2ccnc(N)c2)[C@]2(C)[C@H](C)CC[C@]3(CCC(=O)[C@H]32)[C@@H](C)[C@@H]1O | 0.063 µg/mL (≈ 0.129 µM) | 0.063 µg/mL (≈ 0.129 µM) | 0.063 µg/mL (≈ 0.129 µM) | 0.063 µg/mL (≈ 0.129 µM) | 0.063 µg/mL (≈ 0.129 µM) | 0.063 µg/mL (≈ 0.129 µM)
C=C[C@]1(C)C[C@@H](OC(=O)CSc2ccncc2CO)[C@]2(C)[C@H](C)CC[C@]3(CCC(=O)[C@H]32)[C@@H](C)[C@@H]1O | 0.063 µg/mL (≈ 0.126 µM) | 0.063 µg/mL (≈ 0.126 µM) | 0.063 µg/mL (≈ 0.126 µM) | 0.063 µg/mL (≈ 0.126 µM) | 0.063 µg/mL (≈ 0.126 µM) | 0.125 µg/mL (≈ 0.249 µM)
C=C[C@]1(C)C[C@@H](OC(=O)CSc2ccnc(CO)c2)[C@]2(C)[C@H](C)CC[C@]3(CCC(=O)[C@H]32)[C@@H](C)[C@@H]1O | 0.031 µg/mL (≈ 0.0618 µM) | 0.031 µg/mL (≈ 0.0618 µM) | 0.031 µg/mL (≈ 0.0618 µM) | 0.063 µg/mL (≈ 0.126 µM) | 0.063 µg/mL (≈ 0.126 µM) | 0.063 µg/mL (≈ 0.126 µM)
C=C[C@]1(C)C[C@@H](OC(=O)CSc2cncc(NC(=O)[C@H](C)N)c2)[C@]2(C)[C@H](C)CC[C@]3(CCC(=O)[C@H]32)[C@@H](C)[C@@H]1O | 0.125 µg/mL (≈ 0.224 µM) | 0.125 µg/mL (≈ 0.224 µM) | 0.125 µg/mL (≈ 0.224 µM) | 0.125 µg/mL (≈ 0.224 µM) | 0.125 µg/mL (≈ 0.224 µM) | 0.125 µg/mL (≈ 0.224 µM)
C=C[C@]1(C)C[C@@H](OC(=O)CSc2cncc(NC(=O)[C@@H](N)C(C)C)c2)[C@]2(C)[C@H](C)CC[C@]3(CCC(=O)[C@H]32)[C@@H](C)[C@@H]1O | 0.125 µg/mL (≈ 0.213 µM) | 0.125 µg/mL (≈ 0.213 µM) | 0.125 µg/mL (≈ 0.213 µM) | 0.125 µg/mL (≈ 0.213 µM) | 0.25 µg/mL (≈ 0.427 µM) | 0.125 µg/mL (≈ 0.213 µM)
C=C[C@]1(C)C[C@@H](OC(=O)CSc2cncc(NC(=O)[C@@H](N)[C@@H](C)CC)c2)[C@]2(C)[C@H](C)CC[C@]3(CCC(=O)[C@H]32)[C@@H](C)[C@@H]1O | 0.25 µg/mL (≈ 0.417 µM) | 0.25 µg/mL (≈ 0.417 µM) | 0.25 µg/mL (≈ 0.417 µM) | 0.25 µg/mL (≈ 0.417 µM) | 0.25 µg/mL (≈ 0.417 µM) | 0.25 µg/mL (≈ 0.417 µM)
C=C[C@]1(C)C[C@@H](OC(=O)CSc2cncc(NC(=O)[C@H]3CCCCN3)c2)[C@]2(C)[C@H](C)CC[C@]3(CCC(=O)[C@H]32)[C@@H](C)[C@@H]1O | 0.125 µg/mL (≈ 0.209 µM) | 0.125 µg/mL (≈ 0.209 µM) | 0.031 µg/mL (≈ 0.0519 µM) | 0.063 µg/mL (≈ 0.105 µM) | 0.125 µg/mL (≈ 0.209 µM) | 0.125 µg/mL (≈ 0.209 µM)
C=C[C@]1(C)C[C@@H](OC(=O)CSc2cncc(NC(=O)[C@@H]3CCCN3)c2)[C@]2(C)[C@H](C)CC[C@]3(CCC(=O)[C@H]32)[C@@H](C)[C@@H]1O | 0.125 µg/mL (≈ 0.214 µM) | 0.125 µg/mL (≈ 0.214 µM) | 0.063 µg/mL (≈ 0.108 µM) | 0.031 µg/mL (≈ 0.0531 µM) | 0.125 µg/mL (≈ 0.214 µM) | 0.031 µg/mL (≈ 0.0531 µM)
C=C[C@]1(C)C[C@@H](OC(=O)CSc2cncc(NC(=O)CN(C)C)c2)[C@]2(C)[C@H](C)CC[C@]3(CCC(=O)[C@H]32)[C@@H](C)[C@@H]1O | 0.125 µg/mL (≈ 0.219 µM) | 0.125 µg/mL (≈ 0.219 µM) | 0.125 µg/mL (≈ 0.219 µM) | 0.5 µg/mL (≈ 0.874 µM) | 0.5 µg/mL (≈ 0.874 µM) | 0.125 µg/mL (≈ 0.219 µM)
C=C[C@]1(C)C[C@@H](OC(=O)CSc2cncc(NC(=O)CN3CCCC3)c2)[C@]2(C)[C@H](C)CC[C@]3(CCC(=O)[C@H]32)[C@@H](C)[C@@H]1O | 0.125 µg/mL (≈ 0.209 µM) | 0.125 µg/mL (≈ 0.209 µM) | 0.031 µg/mL (≈ 0.0519 µM) | 0.125 µg/mL (≈ 0.209 µM) | 0.125 µg/mL (≈ 0.209 µM) | 0.031 µg/mL (≈ 0.0519 µM)
C=C[C@]1(C)C[C@@H](OC(=O)CSc2cncc(NC(=O)CN3CCCCC3)c2)[C@]2(C)[C@H](C)CC[C@]3(CCC(=O)[C@H]32)[C@@H](C)[C@@H]1O | 0.125 µg/mL (≈ 0.204 µM) | 0.25 µg/mL (≈ 0.409 µM) | 0.125 µg/mL (≈ 0.204 µM) | 0.125 µg/mL (≈ 0.204 µM) | 0.125 µg/mL (≈ 0.204 µM) | 0.125 µg/mL (≈ 0.204 µM)
C=C[C@]1(C)C[C@@H](OC(=O)CSc2cncc(NC(=O)CN3CCC[C@H]3CN)c2)[C@]2(C)[C@H](C)CC[C@]3(CCC(=O)[C@H]32)[C@@H](C)[C@@H]1O | 0.5 µg/mL (≈ 0.798 µM) | 1 µg/mL (≈ 1.6 µM) | 0.5 µg/mL (≈ 0.798 µM) | 0.5 µg/mL (≈ 0.798 µM) | 0.25 µg/mL (≈ 0.399 µM) | 0.063 µg/mL (≈ 0.101 µM)
C=C[C@]1(C)C[C@@H](OC(=O)CSc2cncc(NC(=O)CN3CCC[C@H]3CO)c2)[C@]2(C)[C@H](C)CC[C@]3(CCC(=O)[C@H]32)[C@@H](C)[C@@H]1O | 0.125 µg/mL (≈ 0.199 µM) | 0.125 µg/mL (≈ 0.199 µM) | 0.125 µg/mL (≈ 0.199 µM) | 0.125 µg/mL (≈ 0.199 µM) | 0.063 µg/mL (≈ 0.1 µM) | 0.125 µg/mL (≈ 0.199 µM)
C=C[C@]1(C)C[C@@H](OC(=O)CSc2cncc(NC(=O)CN3CC[C@H](O)C3)c2)[C@]2(C)[C@H](C)CC[C@]3(CCC(=O)[C@H]32)[C@@H](C)[C@@H]1O | 0.125 µg/mL (≈ 0.204 µM) | 0.125 µg/mL (≈ 0.204 µM) | 0.125 µg/mL (≈ 0.204 µM) | 0.125 µg/mL (≈ 0.204 µM) | 0.125 µg/mL (≈ 0.204 µM) | 0.125 µg/mL (≈ 0.204 µM)
C=C[C@]1(C)C[C@@H](OC(=O)CSc2cncc(NC(=O)CN3CCCC(CO)C3)c2)[C@]2(C)[C@H](C)CC[C@]3(CCC(=O)[C@H]32)[C@@H](C)[C@@H]1O (stereo not given in full) | 0.063 µg/mL (≈ 0.0981 µM) | 0.063 µg/mL (≈ 0.0981 µM) | 0.063 µg/mL (≈ 0.0981 µM) | 0.063 µg/mL (≈ 0.0981 µM) | 0.063 µg/mL (≈ 0.0981 µM) | 0.063 µg/mL (≈ 0.0981 µM)
C=C[C@]1(C)C[C@@H](OC(=O)CSc2cncc(NC(=O)CNCCO)c2)[C@]2(C)[C@H](C)CC[C@]3(CCC(=O)[C@H]32)[C@@H](C)[C@@H]1O | 0.25 µg/mL (≈ 0.425 µM) | 0.25 µg/mL (≈ 0.425 µM) | 0.125 µg/mL (≈ 0.213 µM) | 0.125 µg/mL (≈ 0.213 µM) | 0.125 µg/mL (≈ 0.213 µM) | 0.063 µg/mL (≈ 0.107 µM)
